Source: publication PMC10138723, “Cytotoxic Steroidal Saponins Containing a Rare Fructosyl from the Rhizomes of Paris polyphylla var. latifolia” (International Journal of Molecular Sciences, 2023)

Legend:
Format in all cases: cell-based
[1] = tested on: U251 (human glioma cells); experiment: CCK-8 cytotoxic assay, U251; conditions: U-251, U251 cells, CCK-8, 24 h, read-out: IC50 ± SD, U251
Description: (§1) U251 (human glioma cells), HeLa (human cervical cancer cells), and HepG2 (human hepatic cancer cells) were purchased from the Chinese Academy of Sciences (China), and Capan-2 (human pancreatic cancer cells) were obtained from Nanjing Cobioer Biosicences (Nanjing, China). American Type Culture Collection (ATCC) provided LN229 (human glioma cells). NHA (Gibco Human Astrocytes) and Gibco Astrocyte Medium (DMEM, N-2 Supplement, One Shot fetal bovine serum) were purchased from ThermoFisher Scientific (Waltham, MA, USA). The LN229, U251, HepG2 and HeLa cells were cultured in DMEM (Procell, Wuhan, China). The Capan-2 cells were cultured in RPMI-1640 (Procell, Wuhan, China) and NHA cells were cultured in Gibco Astrocyte Medium, supplemented with 10% FBS (Solarbio, Beijing, China) and 1% Penicillin–Streptomycin (Elabscience Biotechnology Co.,Ltd, Wuhan, China) at 37 °C with 5% CO2.
(§2) In the exponential phase of the growth, five tumor cell lines and one normal human astrocytes were plated onto 96-well plates at a concentration of 8000 cells/well for 24 h. Compounds 1–12 were prepared to various concentrations (64, 32, 16, 8, 4, 2, 1 and 0.5 µM in medium containing less than 0.1% DMSO) and incubated in 96-well plates (each concentration in four-fold wells) for 24 h. Cell viability was determined according to reported assay methods using the commercial CCK-8 kit (Elabscience Biotechnology Co., Ltd., Wuhan, China). The optical density (OD) of each well was measured with an AMR-100 microplate reader at 450 nm (Allsheng Corporation, Hangzhou, China). Cytotoxicity emerged as the value of the drug concentration at the inhibition of cell growth by 50% (IC50). The experiments were conducted for three independent replicates, and Doxorubicin was used as the positive control.

[2] = tested on: HepG2 (human hepatic cancer cells); experiment: CCK-8 cytotoxic assay, HepG2; conditions: HepG2 cells, CCK-8, 24 h, read-out: IC50 ± SD, HepG2
Description: as §1, §2

[3] = tested on: Capan-2 (human pancreatic cancer cells); experiment: CCK-8 cytotoxic assay, Capan-2; conditions: Capan-2 cells, CCK-8, 24 h, read-out: IC50 ± SD, Capan-2
Description: as §1, §2

[4] = tested on: LN229 (human glioma cells); experiment: CCK-8 cytotoxic assay, LN229; conditions: LN-229, LN229 cells, CCK-8, 24 h, read-out: IC50 ± SD, LN229
Description: as §1, §2

[5] = tested on: NHA (normal human astrocytes); experiment: CCK-8 cytotoxic assay, NHA normal astrocytes; conditions: Astrocyte; NHA normal human astrocytes, CCK-8, 24 h; read-out: IC50 ± SD, NHA
Description: as §1, §2

[6] = tested on: HeLa (human cervical cancer cells); experiment: CCK-8 cytotoxic assay, HeLa; conditions: HeLa cells, CCK-8, 24 h, read-out: IC50 ± SD, HeLa
Description: as §1, §2

SMILES: Cc1c(CCC(C)COC2OC(CO)C(O)C(O)C2O)ccc2c1C1(C)CCC3C(CC=C4CC(OC5OC(CO)C(OC6OC(C)C(OC7OC(C)C(O)C(O)C7O)C(O)C6O)C(O)C5OC5OC(C)C(O)C(O)C5O)CCC43C)C1C2 (stereo not drawn) [Compound 7, parispseudoside A]
- IC50 [1]: > 50 µM
- IC50 [2]: > 50 µM
- IC50 [3]: > 50 µM
- IC50 [4]: > 50 µM
- IC50 [5]: > 50 µM
- IC50 [6]: > 50 µM

SMILES: Cc1c(CCC(C)COC2OC(CO)C(O)C(O)C2O)ccc2c1C1(C)CCC3C(CC=C4CC(OC5OC(CO)C(OC6OC(CO)C(O)C6O)C(O)C5OC5OC(C)C(O)C(O)C5O)CCC43C)C1C2 [Compound 8, 3-O-α-L-arabinofuranosyl-(1 → 4)-[α-L-rhamnopyranosyl (1 → 2)]-β-D-glucopyranosyl-β-D-chacotriosyl-26-O-β-D-glucopyranoside]
- IC50 [1]: > 50 µM
- IC50 [2]: > 50 µM
- IC50 [3]: > 50 µM
- IC50 [4]: > 50 µM
- IC50 [5]: > 50 µM
- IC50 [6]: > 50 µM

SMILES: Cc1c(CCC(C)COC2OC(CO)C(O)C(O)C2O)ccc2c1C1(C)CCC3C(CC=C4CC(OC5OC(CO)C(OC6OC(C)C(O)C(O)C6O)C(O)C5OC5OC(C)C(O)C(O)C5O)CCC43C)C1C2 (stereo not drawn) [Compound 9, aethioside A]
- IC50 [1]: > 50 µM
- IC50 [2]: > 50 µM
- IC50 [3]: > 50 µM
- IC50 [4]: > 50 µM
- IC50 [5]: > 50 µM
- IC50 [6]: > 50 µM

SMILES: CC(=O)C1=CCC2C3CC=C4C[C@@H](O[C@@H]5O[C@H](CO)[C@@H](O)[C@H](O)[C@H]5O[C@@H]5O[C@@H](C)[C@H](O)[C@@H](O)[C@H]5O)CC[C@]4(C)C3CC[C@]12C (stereo partly drawn) [Compound 10, spongipregnolosides A]
- IC50 [1]: > 50 µM
- IC50 [2]: > 50 µM
- IC50 [3]: > 50 µM
- IC50 [4]: > 50 µM
- IC50 [5]: > 50 µM
- IC50 [6]: > 50 µM

SMILES: CC(=O)C1=CC[C@H]2[C@@H]3CC=C4C[C@@H](O[C@@H]5O[C@H](CO)[C@@H](O[C@@H]6O[C@@H](C)[C@H](O)[C@@H](O)[C@H]6O)[C@H](O)[C@H]5O[C@@H]5O[C@@H](C)[C@H](O)[C@@H](O)[C@H]5O)CC[C@]4(C)[C@H]3CC[C@]12C [Compound 11, hypoglaucin H]
- IC50 [1]: > 50 µM
- IC50 [2]: > 50 µM
- IC50 [3]: > 50 µM
- IC50 [4]: > 50 µM
- IC50 [5]: > 50 µM
- IC50 [6]: > 50 µM

SMILES: Cc1c(CCC(C)COC2OC(CO)C(O)C(O)C2O)ccc2c1C1(C)CCC3C(CC=C4CC(OC5OC(CO)C(O)C(O)C5OC5OC(C)C(O)C(O)C5O)CCC43C)C1C2 (stereo not drawn) [Compound 12, parispseudoside B]
- IC50 [1]: > 50 µM
- IC50 [2]: > 50 µM
- IC50 [3]: > 50 µM
- IC50 [4]: > 50 µM
- IC50 [5]: > 50 µM
- IC50 [6]: > 50 µM

SMILES: COc1cccc2c1C(=O)c1c(O)c3c(c(O)c1C2=O)C[C@@](O)(C(=O)CO)C[C@@H]3O[C@H]1C[C@H](N)[C@H](O)[C@H](C)O1 [Doxorubicin, reference compound]
- IC50 [1]: 0.21 ± 0.04 µM
- IC50 [2]: 0.21 ± 0.02 µM
- IC50 [3]: 0.18 ± 0.02 µM
- IC50 [4]: 0.35 ± 0.05 µM
- IC50 [5]: > 50 µM
- IC50 [6]: 0.18 ± 0.02 µM
